Reference: patent US6942963B1, “Methods for identifying treatments for neurotoxicity in Alzheimer's disease caused by β-amyloid peptides” (Massachusetts Institute of Technology, priority 1997, dated 2005)
Where “and” joins values, the source holds several entries; their conditions need not be identical. Identical values can stand only once. Entries after “also recorded” stand apart in the source; their conditions may differ. Like-named read-outs stand apart in the source and are kept apart here. Non-standard residues stand in square brackets, D forms with d. No end group written: not given here.

How the values were obtained:
Assay type in all cases: cell-based, human
[1] = tested on: βAP25-35-induced calcium influx, hNT cells; assay: βAP25-35-induced calcium influx in hNT cells: effect of channel antagonists and decoy peptides; conditions: for effect on βAP25-35-induced calcium influx: βAP25-35 21 μM; for effect on increase in internal calcium concentration due to βAP25-35: decoy peptide mixed with βAP25-35 at ratio 1:1 (20 μM+20 μM), hNT cells
[2] = tested on: hNT cells; assay: Internal calcium concentration [Ca2+]int in hNT cells (fura-2) on exposure to β-amyloid peptide or test agent alone; conditions: for [Ca^2+]int after exposure to unfiltered peptide: hNT cells in Tyr2Ca, peptide at 20 μM (βAP1-42 aggregated 37C, 24 hr), controls 80 nM and 50 nM; for % increase in [Ca^2+]int: unfiltered suspension in Tyr2Ca; for effect of decoy peptide by itself on cytosolic calcium concentrations: decoy peptide alone at 20 μM, filtered stocks, Tyrode's/2 mM Ca
[3] = tested on: hNT cells; assay: Membrane depolarization of hNT cells by aggregated Aβ1-42 (DiBAC4(3) fluorescence); conditions: for % ΔF / Δ EM: aggregated Aβ1-42 20 μM
Protocol: Changes in membrane potential were measured using the fluorescent potentiometric probe DiBAC4(3), (Molecular Probes, Inc., Eugene, Oreg.). This dye, bis-(1,3-dibutylbarbituric acid)trimethine oxonol, detects membrane depolarization, because it enters depolarized cells and binds to intracellular proteins or membranes. […] Hyperpolarization results in extrusion of the anionic dye and thus a decrease in fluorescence. Our measurements use two dyes, fura-2 and DiBAC4(3), since these dyes have excitation wavelengths that are far apart, but have similar emission wavelengths. DiBAC4(3) was added to fura-2AM loaded hNT cells at a concentration of 100 nM in Tyr2Ca. Rapidly alternating measurements of fura-2 (excited at 340 & 380 nm) and DiBAC4(3) (excited at 490 nm) were performed using emission at 516 nm. Both dyes were measured using the special “Fura2-Fluo3” filter set 7400 from Chroma Technology (Brattleboro, Vt.), a Zeiss Axiovert 100 inverted microscope and a photometry system (model “Delta Ram” from Photon Technology International, Inc., Monmouth Junction, N.J.).
The bis-oxonol dye DiBAC4(3) was used as an indicator of transmembrane electrical potential changes (Langheinrich and Daut, J. Physiol. 502:397-408, 1997) when our hNT cells were treated with, for example, the β-amyloid peptide Aβ1-42. The use of this dye enabled us to monitor groups of 5-15 neurons, rather than single cells as would be the case with patch clamping methods. We expected great variability from cell to cell, as was found in our earlier patch clamp work (Sanderson et al., Brain Res. 744:7-14, 1997). The method has been used by many laboratories for the determination of membrane potentials in different cell types. Fluorescence is increased upon membrane depolarization as more dye enters the cytosol, resulting in increased binding to proteins (Braiuner et al., Biochim. Biophys. Acta 771:[…], 1984). Partitioning of bis-oxonol dye between the plasma membrane and the cytosol follows the Nernst equation (Langheinrich and Daut, 1997). Unless otherwise indicated, all measurements were carried out in Tyrode's solution containing 2 mM Ca.
We calibrated the gross fluorescence as a function of membrane potential by treating a culture of hNT neurons, bathed in Tyrode's 2Ca buffer with the usual 3 mM K^+, containing 97 nM DiBAC4(3), with Tyrode's 2Ca buffer containing 40 mM KCl. We measured the gross fluorescence at excitation=490 nm and emission=510 nm for the depolarization by KCl and for depolarization by the Aβ1-42 peptide. We used the formula proposed by Langheinrich and Daut, 1997: % ΔF=(1−Fmin/Fmax)*100=ΔEMmV
where Fmin=fluorescence before treatment, Fmax=fluorescence during treatment, ΔEM mV is the change in membrane potential brought about by the treatment. The calculation based on the expected depolarization by changing from 3 mM KCl to 40 MM KCl gave a value of ΔEM=3.8 mV/1% ΔF.
Groups of hNT neuronal cells (5-17) were exposed to Aβ1-42 (20 μM) that had been incubated at 37° C. for 48 hours; 97 nM DiBAC4(3) was present. Fluorescence was measured as described above; Ex=490 nm, Em=510 nm.

[4] = tested on: βAP1-42-induced calcium influx, hNT cells; assay: βAP1-42 (Aβ1-42) aggregate-induced calcium influx in hNT cells: effect of decoy peptides and channel blockers; conditions: βAP1-42 25 μM coincubated with equimolar decoy peptide at 37° C. for 44 hours, hNT cells
[5] = hNT cells, aggregated Aβ1-42 in Tyrode's medium without calcium

## NC(CCCP(=O)(O)O)C(=O)O (racemic) [DL-AP5, DL-2-amino-5-phosphonovaleric acid]
[1]; concentration not stated
  block of calcium influx into hNT neuronal cells caused by βAP25-35: lack of blocking effect
[1]; DL-AP5 at 50 μM
  effect on βAP25-35-induced calcium influx: failed to prevent
[1]; DL-AP5 at 200 μM
  effect on βAP25-35-induced calcium influx: failed to prevent

## [Cl][Al]([Cl])[Cl] [AlCl3]
[2]; hNT neuronal cells, from external calcium sources
  calcium influx induced by agent by itself: powerfully induces calcium influx

## O=c1[nH]c2cc([N+](=O)[O-])c([N+](=O)[O-])cc2[nH]c1=O [DNQX, 6,7-dinitroquinoxaline-2,3(1H, 4H)-dione]
[1]; DNQX at 8 μM, applied together
  effect on βAP25-35-induced calcium influx: completely prevented

## O=C(O)CN(CCOCCOCCN(CC(=O)O)CC(=O)O)CC(=O)O [EGTA]
[1]; 20 mM EGTA in addition to βAP25-35 peptide
  internal calcium with chelator in external solution in addition to βAP25-35: decreased internal calcium to control levels

## NC(CO)(CO)CO [TRIS^+, Tromethamine]
[3]; hNT cells, 10 mM TRIS^+
  effect on membrane depolarization by aggregated Aβ1-42: moderate decrease in membrane depolarization; also recorded: partially blocks membrane depolarization

## [Cl-].[Cl-].[Mg+2] [magnesium chloride]
[1]
  block of calcium influx into hNT neuronal cells caused by βAP25-35: blocks the influx of Ca^2+; also recorded: can be blocked
  effect on βAP25-35-induced influx of calcium: totally blocked

## GSNKGAIIGLM [βAP25-35]
[2]
  [Ca^2+]int after exposure to unfiltered peptide: approximately 200 nM
[2]; hNT cells previously exposed to 50 μM βAP25-35 in Tyrode's/0 mM Ca
  internal calcium concentration after restoring external calcium to 2 mM without extra peptide: ~200 % of control levels
[2]; hNT cells, 21 μM βAP25-35, single experiment, 4 cells
  [Ca^2+]int relative to control: 270 % of control
[2]; hNT cells, Tyrode's/0 mM Ca plus 50 μM βAP25-35, even after 15 minutes
  internal calcium in external Tyrode's solution without calcium: no increase in internal calcium
[2]; hNT cells, [βAP25-35] 10 μM
  % increase in [Ca^2+]int: 170 ± 85%
[2]; hNT cells, [βAP25-35] 20 μM
  % increase in [Ca^2+]int: 286 ± 179%
[2]; hNT cells, [βAP25-35] 50 μM
  % increase in [Ca^2+]int: 343 ± 245%
[2]; hNT cells, [βAP25-35] 130 μM
  % increase in [Ca^2+]int: 623 ± 555%
[2]; hNT cells, [βAP25-35] 172 μM
  % increase in [Ca^2+]int: 367 ± 108%
[2]; hNT cells, [βAP25-35] 334 μM
  % increase in [Ca^2+]int: 508 ± 561%
[2]; hNT cells, [βAP25-35] 112-114 μM
  % increase in [Ca^2+]int: 366 ± 260%

## ^+NH3-TVIGTIGGG-CONH2 (H-[dT][dV][dI]G[dT][dI]GGG-NH2; SMILES CC[C@@H](C)[C@@H](NC(=O)[C@H](NC(=O)[C@H](N)[C@H](C)O)C(C)C)C(=O)NCC(=O)N[C@@H](C(=O)N[C@@H](C(=O)NCC(=O)NCC(=O)NCC(N)=O)[C@H](C)CC)[C@H](C)O) [DP3]
[2]; hNT cells
  effect of decoy peptide by itself on cytosolic calcium concentrations: raise cytosolic calcium concentrations somewhat
[2]; hNT cells, unfiltered DP3 at 20 μM
  effect of unfiltered decoy peptide alone on [Ca^2+]int: an increase in [Ca^2+]int
[1]; DP3 in Tyrode's/2 mM Ca for 1 hour, then βAP25-35 added, both 20 mM [sic]
  effect on calcium influx when decoy peptide added prior to βAP25-35 aggregation: reduced the calcium influx induced by βAP25-35; also recorded: can reduce the βAP25-35-induced Ca^2+ influx
[1]
  effect on increase in internal calcium concentration due to βAP25-35: reduced or abolished the increase in the internal calcium concentration
[1]; unfiltered DP3 mixed with βAP25-35 at molar ratios of 1:2 or greater
  effect on ability of βAP25-35 to induce influx of calcium: marked decrease in the ability of βAP25-35 to induce influx of calcium
[1]; βAP25-35 aggregated 2 hours before DP3 addition, both 20 mM [sic]
  effect on calcium influx when decoy peptide added after βAP25-35 aggregation: did not reduce the induction of calcium influx

## ^+NH3.A.G.V.I.S.I.G.G.G (AGVISIGGG; not fully specified; printed as ^+NH3.A.G.V.I.S.I.G.G.G) [DP7]
[2]; hNT cells
  effect of decoy peptide by itself on cytosolic calcium concentrations: raise cytosolic calcium concentrations somewhat
[1]
  effect on increase in internal calcium concentration due to βAP25-35: reduced or abolished the increase in the internal calcium concentration

## ^+NH3.P.V.P.R^+.P.I.P.A.P.COO^− (H-[dP][dV][dP][dR][dP][dI][dP][dA][dP]-OH; also: modified) [DP17]
[4]
  effect on βAP1-42 calcium influx: did not reduce the effect of βAP1-42 on the calcium influx

## ^+NH3.T.G.I.I.A.S.G.G.G. (H-[dT]G[dI][dI][dA][dS]GGG) [DP4]
[2]; hNT cells
  effect of decoy peptide by itself on cytosolic calcium concentrations: no effect on cytosolic calcium concentrations
[1]
  effect on increase in internal calcium concentration due to βAP25-35: reduced or abolished the increase in the internal calcium concentration

## ^+NH3.T.T.I.V.S.T.G.G.G (H-[dT][dT][dI][dV][dS][dT]GGG) [DP6]
[2]; hNT cells
  effect of decoy peptide by itself on cytosolic calcium concentrations: raise cytosolic calcium concentrations somewhat
[1]
  effect on increase in internal calcium concentration due to βAP25-35: reduced or abolished the increase in the internal calcium concentration

## βAP1-42: β-amyloid peptide, SEQ ID NO:20, purchased from Quality Controlled Biochemicals
[2]; Aβ1-42 sample not incubated (protofibrils)
  calcium influx by Aβ1-42 not incubated at 37° C.: did not produce the characteristic calcium influx
[2]
  [Ca^2+]int after exposure to unfiltered peptide: approximately 94 nM
[2]; hNT cells, aggregated Aβ1-42
  cytosolic calcium level after spontaneous desensitization: ~200 % of control
[2]; hNT cells, aggregated Aβ1-42, other experiments with longer time
  new plateau calcium level relative to control values: about twofold
[2]; [5]
  rise in cytosolic calcium without external calcium: almost no rise in cytosolic calcium
[2]; hNT cells, fura-2, Tyrode's/2Ca
  cytosolic calcium upon addition of aggregated Aβ1-42: large increase in cytosolic calcium
[2]; hNT cells, increasing βAP1-42 concentration
  concentration dependence of calcium influx: strong concentration dependence
[3]; [Ca^2+] 0 mM, Na^+
  % ΔF: 51.1%
[3]; [Ca^2+] 0.4 mM, Na^+
  % ΔF: 8.3%
  Δ EM: +31.6 mV
[3]; [Ca^2+] 2 mM, ext. cation NMDG^+
  % ΔF: 44.1%
[3]; [Ca^2+] 2 mM, ext. cation Na^+, no addition
  % ΔF: 15.7% and 14.8%
[3]; [Ca^2+] 2 mM, ext. cation TEA^+
  % ΔF: 44.8%
[3]; [Ca^2+] 10 mM, Na^+
  % ΔF: 15.3%
  Δ EM: +58.3 mV
[3]; cultured hNT neuronal cells, Tyrode's/2Ca
  membrane depolarization caused by pre-aggregated Aβ1-42: large membrane depolarization
[3]; external Na^+ replaced with equal concentration of TEA^+ or NMDG^+
  membrane depolarization with external Na^+ replaced: large membrane depolarization
[3]; [5]
  membrane depolarization without external calcium: greatly increased membrane depolarization
